Read-outs that look alike come from different tables or passages of the source.
How the values were obtained:
M4 mAChR [1] = biological target: T1, M4 mAChR (Homo sapiens, UniProt P08173); assay: biochemical; details: read-out: [3H]-NMS binding remaining (0 min = 100), MEAN, M4 mAChR; for remaining activity at 0.1 µM: 0.1 μM Xano alone; for remaining activity at 1 µM: 1 μM Xano alone; for remaining activity at 10 µM: 10 μM Xano alone
T1 sequence (P08173 1-479): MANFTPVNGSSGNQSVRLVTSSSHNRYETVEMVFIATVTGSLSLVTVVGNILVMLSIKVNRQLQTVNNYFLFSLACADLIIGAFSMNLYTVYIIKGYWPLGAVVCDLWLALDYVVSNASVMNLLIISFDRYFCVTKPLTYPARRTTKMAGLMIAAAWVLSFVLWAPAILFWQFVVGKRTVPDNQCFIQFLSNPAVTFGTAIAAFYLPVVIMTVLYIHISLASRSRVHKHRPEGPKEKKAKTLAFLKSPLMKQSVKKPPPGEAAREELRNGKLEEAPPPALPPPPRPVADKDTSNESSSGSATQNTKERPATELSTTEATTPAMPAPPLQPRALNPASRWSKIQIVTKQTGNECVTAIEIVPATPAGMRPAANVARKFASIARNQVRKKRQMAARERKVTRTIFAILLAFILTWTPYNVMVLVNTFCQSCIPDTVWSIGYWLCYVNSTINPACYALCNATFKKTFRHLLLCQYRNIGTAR

M4 mAChR [2] = biological target: T1, M4 mAChR
[3] = tested on: M4 mAChR knockout (KO) mice / M1 mAChR KO mice; details: cited from earlier work

## CCCCCCOc1nsnc1C1=CCCN(C)C1 [xanomeline]
M4 mAChR [1]; 0.5 h, 30 min
  remaining activity at 0.1 µM: 90.3%
  remaining activity at 1 µM: 87.3%
  remaining activity at 10 µM: 77.6%
M4 mAChR [1]; 0.5 h, 10 μM Atropine + 100 μM Xanomeline, 30 min
  remaining activity at 100 µM: 85.1%
M4 mAChR [1]; 0.5 h, 100 μM Xano alone, 30 min
  remaining activity at 100 µM: 85.7%
M4 mAChR [1]; 1 h, 60 min
  remaining activity at 0.1 µM: 94.4%
  remaining activity at 1 µM: 76.8%
  remaining activity at 10 µM: 61%
M4 mAChR [1]; 1 h, 10 μM Atropine + 100 μM Xanomeline, 60 min
  remaining activity at 100 µM: 69.6%
M4 mAChR [1]; 1 h, 100 μM Xano alone, 60 min
  remaining activity at 100 µM: 73.5%
M4 mAChR [1]; 1.5 h, 90 min
  remaining activity at 0.1 µM: 98.4%
  remaining activity at 1 µM: 74.4%
  remaining activity at 10 µM: 50.9%
M4 mAChR [1]; 1.5 h, 10 μM Atropine + 100 μM Xanomeline, 90 min
  remaining activity at 100 µM: 64.1%
M4 mAChR [1]; 1.5 h, 100 μM Xano alone, 90 min
  remaining activity at 100 µM: 62.6%
M4 mAChR [1]; 2 h, 120 min
  remaining activity at 0.1 µM: 94.7%
  remaining activity at 1 µM: 64.9%
M4 mAChR [1]; 2 h, 10 μM Atropine + 100 μM Xanomeline, 120 min
  remaining activity at 100 µM: 52.9%
M4 mAChR [1]; 2 h, 100 μM Xano alone, 120 min
  remaining activity at 100 µM: 61.2%
M4 mAChR [1]; 3 h, 180 min
  remaining activity at 0.1 µM: 92.1%
  remaining activity at 1 µM: 60.5%
  remaining activity at 10 µM: 32.7%
M4 mAChR [1]; 3 h, 100 μM Xano alone, 180 min
  remaining activity at 100 µM: 46.6%
M4 mAChR [1]; 5 h, 300 min
  remaining activity at 0.1 µM: 89.8%
  remaining activity at 1 µM: 57.5%
  remaining activity at 10 µM: 17.9%
M4 mAChR [1]; 5 h, 10 μM Atropine + 100 μM Xanomeline, 300 min
  remaining activity at 100 µM: 26.7%
M4 mAChR [1]; 5 h, 100 μM Xano alone, 300 min
  remaining activity at 100 µM: 34.6%
M4 mAChR [2]; 10 µM xanomeline alone
  rebinding of [3H]-NMS (in words): prevented the rebinding
M4 mAChR [2]; 100 µM xanomeline alone
  [3H]-NMS dissociation (in words): slowed to the same extent
[3]; M1 mAChR KO mice
  antipsychotic efficacy: partially reduced
[3]; M4 mAChR knockout (KO) mice
  antipsychotic efficacy: completely abolished

From publication PMC10482975 (Nature Communications, 2023)
